Consider 22 compounds from patent publication US12234220B2, “Immunomodulatory compounds” (DANA-FARBER CANCER INSTITUTE, INC., priority 2018, dated 2025).

For this experiment, the target named is DDB1AB-CRBN (Homo sapiens, UniProt Q96SW2). The experiment is described as follows: Lenalidomide displacement assay (Atto565-Lenalidomide fluorescence polarization). The experiment is classed as binding. The note with it: for Ki: calculated from IC50 with probe Kd of 40 nM, competitive model, read-out: CRBN Binding Ki; for binding affinity with CRBN, in words: fluorescence polarization assay, compared to lenalidomide control, FIG. 1A. The protocol: Compound titrations were incubated for 60 min at RT. The change in fluorescence polarization was monitored using a PHERAstar® FS microplate reader (BMG Labtech) for 1 h in 120 s cycles.
Sequence of DDB1AB-CRBN (Q96SW2 whole entry): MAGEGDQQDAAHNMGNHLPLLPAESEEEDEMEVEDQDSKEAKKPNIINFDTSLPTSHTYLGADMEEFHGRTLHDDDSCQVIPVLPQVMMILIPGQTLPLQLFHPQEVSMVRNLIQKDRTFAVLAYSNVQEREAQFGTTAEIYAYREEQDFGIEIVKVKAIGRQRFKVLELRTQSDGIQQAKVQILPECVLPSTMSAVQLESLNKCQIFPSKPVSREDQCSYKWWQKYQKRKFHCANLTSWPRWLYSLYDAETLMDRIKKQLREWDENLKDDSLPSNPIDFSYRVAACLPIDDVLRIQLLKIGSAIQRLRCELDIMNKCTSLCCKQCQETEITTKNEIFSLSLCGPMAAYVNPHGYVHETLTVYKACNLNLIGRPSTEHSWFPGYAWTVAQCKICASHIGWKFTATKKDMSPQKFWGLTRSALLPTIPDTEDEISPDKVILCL

The mark [1] stands for this setting: Table 1, n=2, 10 nM Atto565-Lenalidomide probe, 100 nM DDB1AB-CRBN, read-out: CRBN Binding IC50.
Where [2] appears, read: Table 1, n=2, 10 nM Atto565-Lenalidomide probe, 100 nM DDB1AB-CRBN.
Setting [3] is: refers to Tables 1 and 2, FIG. 1A/1B, read-out: IC50.

What is called Ki is a measure of affinity in units of concentration, obtained from inhibition or displacement. Usually IC50 stands for the midpoint of a concentration-inhibition curve.

Like-named read-outs stand apart in the source and are kept apart here.

Regarding `O=C1CCC(NC(=O)c2cccc(OCc3ccccc3)n2)C(=O)N1` (stereo not drawn) [Compound 1, 6-(benzyloxy)-N-(2,6-dioxopiperidin-3-yl)picolinamide], the Ki (Table 1) was 15.7 µM. In addition, under setting [1], the IC50 worked out at 55 µM.

Take `Nc1cccc(C(=O)NC2CCC(=O)NC2=O)n1` (stereo not drawn) [Compound 3, 6-amino-N-(2,6-dioxopiperidin-3-yl)picolinamide]: the “binding affinity with CRBN, in words” value was “moderate binding affinity”. For the same compound, the “CRBN Binding, probe displacement at single concentration” value (“CRBN Binding, probe displacement” below) (at 100 μM) is reported as 30% at 100 μM.

Consider `O=C1CCC(NC(=O)c2cc(Cl)ccn2)C(=O)N1` (stereo not drawn) [Compound 4, 4-chloro-N-(2,6-dioxopiperidin-3-yl)picolinamide], for which the “binding affinity with CRBN, in words” value was “moderate binding affinity”. Further, the “CRBN Binding, probe displacement” value (at 100 μM) stood at 30% at 100 μM.

Take `O=C1CCC(NC(=O)c2ccnc(NCc3ccccc3)n2)C(=O)N1` (stereo not drawn) [Compound 5, 2-(benzylamino)-N-(2,6-dioxopiperidin-3-yl)pyrimidine-4-carboxamide]: the “binding affinity with CRBN, in words” value is “moderate binding affinity”. The Ki (Table 1) is 32.5 µM. The half-inhibitory concentration (IC50) under setting [1] was determined as 113 µM.

Turning to `COc1cccc(C(=O)NC2CCC(=O)NC2=O)n1` (stereo not drawn) [Compound 6, N-(2,6-dioxopiperidin-3-yl)-6-methoxypicolinamide], the “CRBN Binding IC50” value under setting [2] is reported as “Inactive”.

On to `O=C1CCC(NC(=O)c2ccnc(OCc3ccccc3)n2)C(=O)N1` (stereo not drawn) [Compound 7, 2-(benzyloxy)-N-(2,6-dioxopiperidin-3-yl)pyrimidine-4-carboxamide], for which the Ki (Table 1) was 8.3 µM. Besides, the IC50 under setting [1] was determined as 29 µM.

Turning to `O=C1CCC(NC(=O)c2cccc3cccnc23)C(=O)N1` (stereo not drawn) [Compound 8, N-(2,6-dioxopiperidin-3-yl)quinoline-8-carboxamide], the Ki (Table 1) is 4 µM. The IC50 under setting [1] came out at 14 µM.

In the case of `O=C1CCC(NC(=O)c2ccc(OCc3ccc(CN4CCOCC4)cc3)cn2)C(=O)N1` (stereo not drawn) [Compound 11, N-(2,6-dioxopiperidin-3-yl)-5-((4-(morpholinomethyl)benzyl)oxy)picolinamide], the “CRBN Binding, probe displacement” value (at 100 μM) was 50% at 100 μM.

On to `O=C1CCC(NC(=O)c2ccc[nH]c2=O)C(=O)N1` (stereo not drawn) [Compound 19, N-(2,6-dioxopiperidin-3-yl)-2-oxo-1,2-dihydropyridine-3-carboxamide], for which, for the setting “Table 1”, the Ki is 15 µM. Further, the IC50 under setting [1] turned out to be 53 µM.

For the compound `Cn1cccc(C(=O)NC2CCC(=O)NC2=O)c1=O` (stereo not drawn) [Compound 20, N-(2,6-dioxopiperidin-3-yl)-1-methyl-2-oxo-1,2-dihydropyridine-3-carboxamide], the Ki (Table 1) was 66 µM. Also, under setting [1], the IC50 is 231 µM.

Regarding `O=C1CCC(NC(=O)c2cccn(-c3ccccc3)c2=O)C(=O)N1` (stereo not drawn) [Compound 21, N-(2,6-dioxopiperidin-3-yl)-2-oxo-1-phenyl-1,2-dihydropyridine-3-carboxamide], under “Table 1”, the Ki was 20.6 µM. The IC50 under setting [1] amounted to 72 µM.

Regarding `O=C1CCC(NC(=O)c2cccn(Cc3ccccc3)c2=O)C(=O)N1` (stereo not drawn) [Compound 22, 1-Benzyl-N-(2,6-dioxopiperidin-3-yl)-2-oxo-1,2-dihydropyridine-3-carboxamide], the Ki (Table 1) is 15 µM. The IC50 under setting [1] amounted to 53 µM.

`Nc1ccc(C(=O)NC2CCC(=O)NC2=O)c2ncccc12` (stereo not drawn) [Compound 23, 5-Amino-N-(2,6-dioxopiperidin-3-yl) quinoline-8-carboxamide]: the Ki (Table 1) was 0.8 µM. In addition, the IC50 under setting [3] was determined as 2.9 µM.

Turning to `Nc1ccnc2c(C(=O)NC3CCC(=O)NC3=O)cccc12` (stereo not drawn) [Compound 24, 4-Amino-N-(2,6-dioxopiperidin-3-yl)quinoline-8-carboxamide], the Ki (Table 1) was 2.2 µM. Moreover, under setting [3], the IC50 is 7.7 µM.

With `Nc1cnc2c(C(=O)NC3CCC(=O)NC3=O)cccc2c1` (stereo not drawn) [Compound 25, 3-Amino-N-(2,6-dioxopiperidin-3-yl)quinoline-8-carboxamide], the Ki (Table 1) was 5 µM. For the same compound, under setting [1], the IC50 came out at 17.5 µM.

For the compound `O=C1CCC(NC(=O)c2cccc3c(O)ccnc23)C(=O)N1` (stereo not drawn) [Compound 26, N-(2,6-dioxopiperidin-3-yl)-4-hydroxyquinoline-8-carboxamide], under “at 100 μM”, the “CRBN Binding, probe displacement” value is 50% at 100 μM and the “probe displacement” value was 50%.

For the compound `Nc1ccc(NC(=O)NC2CCC(=O)NC2=O)nc1` (stereo not drawn) [Compound 27, 1-(5-aminopyridin-2-yl)-3-(2,6-dioxopiperidin-3-yl)urea], the “CRBN Binding, probe displacement” value (at 100 μM) was 50% at 100 μM.

For the compound `O=C1CCC(NC(=O)Nc2ccc(O)cn2)C(=O)N1` (stereo not drawn) [Compound 28, 1-(2,6-Dioxopiperidin-3-yl)-3-(5-hydroxypyridin-2-yl)urea], the “CRBN Binding IC50” value under setting [2] was “inactive”.

For the compound `O=C1CCC(NC(=O)Nc2cccc3c2NCC3)C(=O)N1` (stereo not drawn) [Compound 29, 1-(2,6-Dioxopiperidin-3-yl)-3-(indolin-7-yl)urea], the “CRBN Binding IC50” value under setting [2] is “inactive”.

For `O=C1CCC(NC(=O)c2cccc3c2NCC3)C(=O)N1` (stereo not drawn) [Compound 30, N-(2,6-dioxopiperidin-3-yl)indoline-7-carboxamide], where the note is “at 100 μM”, the “CRBN Binding, probe displacement” value is 50% at 100 μM.

On to `O=C1CCC(NC(=O)c2cccc3nc[nH]c23)C(=O)N1` (stereo not drawn) [Compound 31, N-(2,6-dioxopiperidin-3-yl)-1H-benzo[d]imidazole-4-carboxamide], for which the Ki (Table 1) was 10.7 µM. Besides, the IC50 under setting [1] was found to be 37.6 µM.

As for `O=C1CCC(NC(=O)c2cccc(OCc3ccc(CN4CCOCC4)cc3)n2)C(=O)N1` (stereo not drawn) [Compound 32, N-(2,6-dioxopiperidin-3-yl)-6-((4-(morpholinomethyl)benzyl)oxy)picolinamide], the Ki (Table 1) is 11.4 µM. Further, the IC50 under setting [1] is 40 µM.
